In US20250304567A1, “PYRROLIDIONE DERIVATIVES AS INHIBITORS OF NF KAPPA B INDUCING KINASE” (priority 2022, published 2025):
Read-outs that look alike come from different tables or passages of the source.

What was measured:
[1] = target: Recombinant Human NF-kappaB-Inducing Kinase (NIK/MAP3K14) (Homo sapiens, UniProt Q99558); assay: Inhibition of auto-phosphorylation of recombinant human NIK/MAP3K14 activity (AlphaScreen); format: biochemical; settings: 5 μM ATP, 1 nM NIK, average if tested more than once
Outline: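 AlphaScreen detection of phospho-Ser176/180 after 1 nM GST-NIK auto-phosphorylates for 2 h at 25 °C with 5 μM ATP (50 mM Tris pH 7.5, 0.7% DMSO). IC50s come from sigmoidal curves of % inhibition against log dose, using enzyme-free, ATP-free low controls and full-activity high controls.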

[2] = test system: p-IKKa levels in L363 (NIK translocated multiple myeloma) cells; assay: Effect of compounds on p-IKKa levels in L363 (NIK translocated multiple myeloma) cells (AlphaLISA SureFire Ultra p-IKKa Ser176/180); format: cell-based, human; settings: average if tested more than once, read-out: Assay 2 IC50
Outline: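 Phospho-IKKa (Ser176/180) in lysates quantified by AlphaLISA after 6 h compound exposure, 11-point threefold dilutions, 0.3% DMSO. L363 cells were pre-stimulated overnight and assayed with 250 ng/ml BAFF and 10 μM MG132; % inhibition fitted sigmoidally for IC50, duplicate curves.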

[3] = Homo sapiens, L-363, p-IKKa levels in L363 cells

Sequence of Recombinant Human NF-kappaB-Inducing Kinase (NIK/MAP3K14) (Q99558 whole entry): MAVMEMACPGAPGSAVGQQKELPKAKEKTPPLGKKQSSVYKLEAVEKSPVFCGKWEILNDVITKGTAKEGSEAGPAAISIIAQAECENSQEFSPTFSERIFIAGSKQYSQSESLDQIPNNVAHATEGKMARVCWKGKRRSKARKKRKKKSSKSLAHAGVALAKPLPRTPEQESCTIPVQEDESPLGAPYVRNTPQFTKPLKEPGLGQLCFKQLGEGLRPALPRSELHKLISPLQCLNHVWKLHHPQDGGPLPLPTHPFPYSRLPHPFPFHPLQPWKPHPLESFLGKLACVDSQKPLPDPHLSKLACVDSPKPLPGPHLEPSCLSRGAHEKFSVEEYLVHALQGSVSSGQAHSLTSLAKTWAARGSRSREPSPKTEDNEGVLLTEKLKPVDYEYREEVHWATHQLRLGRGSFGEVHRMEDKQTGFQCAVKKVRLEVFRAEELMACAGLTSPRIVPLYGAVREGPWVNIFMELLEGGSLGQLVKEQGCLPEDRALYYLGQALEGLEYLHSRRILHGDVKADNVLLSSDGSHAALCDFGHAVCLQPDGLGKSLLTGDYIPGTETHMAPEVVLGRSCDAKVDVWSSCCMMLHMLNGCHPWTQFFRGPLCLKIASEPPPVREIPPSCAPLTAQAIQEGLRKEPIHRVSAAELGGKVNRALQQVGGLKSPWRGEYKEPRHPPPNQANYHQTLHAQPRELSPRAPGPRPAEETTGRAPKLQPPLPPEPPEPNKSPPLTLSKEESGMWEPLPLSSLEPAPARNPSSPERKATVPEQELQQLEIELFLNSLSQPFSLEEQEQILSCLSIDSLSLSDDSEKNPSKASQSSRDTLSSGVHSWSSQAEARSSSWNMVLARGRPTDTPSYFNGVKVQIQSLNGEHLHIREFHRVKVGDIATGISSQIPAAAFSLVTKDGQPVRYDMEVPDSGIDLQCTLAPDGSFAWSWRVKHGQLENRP

| Structure (SMILES) | IC50 [1] | IC50 [2, 3] | IC50 ([2]; p-IKKa levels in L363 cells) |
| --- | --- | --- | --- |
| COc1nn(CC(F)F)cc1Nc1nccc(-n2ccc(-c3cc([C@]4(O)CCN(C)C4=O)ccn3)n2)n1 (single isomer, unassigned) [Example 155, (R)-3-(2-(1-(2-((1-(2,2-difluoroethyl)-3-methoxy-1H-pyrazol-4-yl)amino)pyrimidin-4-yl)-1H-pyrazol-3-yl)pyridin-4-yl)-3-hydroxy-1-methylpyrrolidin-2-one or (S)-3-(2-(1-(2-((1-(2,2-difluoroethyl)-3-methoxy-1H-pyrazol-4-yl)amino)pyrimidin-4-yl)-1H-pyrazol-3-yl)pyridin-4-yl)-3-hydroxy-1-methylpyrrolidin-2-one] | < 0.1 µM | < 0.1 µM | – |
| CN1CC[C@@](O)(c2cccc(-c3nc(-c4ccnc(NCc5ccccn5)n4)cs3)c2)C1=O [Example 182] | 0.1 to 0.5 µM | > 0.501 µM | – |
| CN1CC[C@@](O)(c2cccc(-c3csc(-c4ccnc(Nc5cnn(CC(F)F)c5)n4)n3)c2)C1=O [Example 80, (R)-3-(3-(2-(2-((1-(2,2-difluoroethyl)-1H-pyrazol-4-yl)amino)pyrimidin-4-yl)thiazol-4-yl)phenyl)-3-hydroxy-1-methylpyrrolidin-2-one] | < 0.1 µM | < 0.1 µM | – |
| Cc1nn(C)cc1CNc1nccc(-c2csc(-c3cccc([C@]4(O)CCN(C)C4=O)c3)n2)n1 [Example 210] | < 0.1 µM | > 0.501 µM | – |
| CN1CC[C@@](O)(c2cccc(-c3nc(-c4ccnc(Nc5nccc(C(F)(F)F)n5)n4)cs3)c2)C1=O [Example 165, (R)-3-Hydroxy-1-methyl-3-(3-(4-(2-((4-(trifluoromethyl)pyrimidin-2-yl)amino)pyrimidin-4-yl)thiazol-2-yl)phenyl)pyrrolidin-2-one] | 0.1 to 0.5 µM | > 0.501 µM | – |
| CN1CC[C@@](O)(c2cncc(-c3ccn(-c4ccnc(Nc5cnn6cccnc56)n4)n3)c2)C1=O (single isomer, unassigned) [Example 148, (R)-3-hydroxy-1-methyl-3-(5-(1-(2-(pyrazolo[1,5-a]pyrimidin-3-ylamino)pyrimidin-4-yl)-1H-pyrazol-3-yl)pyridin-3-yl)pyrrolidin-2-one or (S)-3-hydroxy-1-methyl-3-(5-(1-(2-(pyrazolo[1,5-a]pyrimidin-3-ylamino)pyrimidin-4-yl)-1H-pyrazol-3-yl)pyridin-3-yl)pyrrolidin-2-one] | < 0.1 µM | > 0.501 µM | – |
| CN1CCO[C@@H](CNc2nccc(-c3csc(-c4cccc([C@]5(O)CCN(C)C5=O)c4)n3)n2)C1 [Example 213] | > 0.501 µM | > 0.501 µM | – |
| CN1CC[C@@](O)(c2cccc(-c3nc(-c4ccnc(N[C@H]5CC[C@H](O)C5)n4)cs3)c2)C1=O [Example 252] | 0.1 to 0.5 µM | > 0.501 µM | – |
| Cc1cc(Nc2nccc(-c3csc(-c4cccc([C@]5(O)CCN(C)C5=O)c4)n3)n2)ncn1 [Example 106, (R)-3-hydroxy-1-methyl-3-(3-(4-(2-((6-methylpyrimidin-4-yl)amino)pyrimidin-4-yl)thiazol-2-yl)phenyl)pyrrolidin-2-one] | < 0.1 µM | > 0.501 µM | – |
| C[C@H](Nc1nccc(-n2ccc(-c3cccc([C@]4(O)CCN(C)C4=O)c3)n2)n1)c1cnn(C)c1 (single isomer, unassigned) [Example 93] | < 0.1 µM | 0.1 to 0.5 µM | – |
| CN1CC[C@@](O)(c2cccc(-c3nc(-c4ccnc(N[C@H]5CCCc6cn[nH]c65)n4)cs3)c2)C1=O (single isomer, unassigned) [Example 136] | 0.1 to 0.5 µM | > 0.501 µM | – |
| CCCn1ccc(Nc2nccc(-c3csc(-c4cccc([C@]5(O)CCN(C)C5=O)c4)n3)n2)n1 [Example 67, (R)-3-hydroxy-1-methyl-3-(3-(4-(2-((1-propyl-1H-pyrazol-3-yl)amino)pyrimidin-4-yl)thiazol-2-yl)phenyl)pyrrolidin-2-one] | < 0.1 µM | 0.1 to 0.5 µM | – |
| CNC(=O)c1cc(Nc2nccc(-c3csc(-c4cccc([C@]5(O)CCN(C)C5=O)c4)n3)n2)c(OC2CC2)cc1F [Example 12, (R)-4-Cyclopropoxy-2-fluoro-5-((4-(2-(3-(3-hydroxy-1-methyl-2-oxopyrrolidin-3-yl)phenyl)thiazol-4-yl)pyrimidin-2-yl)amino)-N-methylbenzamide] | < 0.1 µM | 0.1 to 0.5 µM | – |
| COCCOc1nn(CC(F)F)cc1Nc1nccc(-c2csc(-c3cccc([C@]4(O)CCN(C)C4=O)c3)n2)n1 [Example 11, (R)-3-(3-(4-(2-((1-(2,2-Difluoroethyl)-3-(2-methoxyethoxy)-1H-pyrazol-4-yl)amino)pyrimidin-4-yl)thiazol-2-yl)phenyl)-3-hydroxy-1-methylpyrrolidin-2-one] | < 0.1 µM | < 0.1 µM | – |
| Cc1sc(-c2cccc([C@]3(O)CCN(C)C3=O)c2)nc1-c1ccnc(Nc2ccn(C)n2)n1 [Example 17, (R)-3-Hydroxy-1-methyl-3-(3-(5-methyl-4-(2-((1-methyl-1H-pyrazol-3-yl)amino)pyrimidin-4-yl)thiazol-2-yl)phenyl)pyrrolidin-2-one] | < 0.1 µM | > 0.501 µM | – |
| CN1CCC[C@H](Nc2nccc(-c3csc(-c4cccc([C@]5(O)CCN(C)C5=O)c4)n3)n2)C1=O [Example 223] | > 0.501 µM | > 0.501 µM | – |

| Structure (SMILES) | IC50 [1] | IC50 [2, 3] | IC50 ([2]; p-IKKa levels in L363 cells) |
| --- | --- | --- | --- |
| CN1CCC(O)(c2cc(C#N)cc(-c3csc(-c4ccnc(Nc5ccn(C)n5)n4)n3)c2)C1=O (single isomer, unassigned) [Example 58, 3-(3-hydroxy-1-methyl-2-oxopyrrolidin-3-yl)-5-(2-(2-((1-methyl-1H-pyrazol-3-yl)amino)pyrimidin-4-yl)thiazol-4-yl)benzonitrile] | > 0.501 µM | – | > 0.501 µM |
| CN1C(=O)[C@@](O)(c2ccnc(-c3csc(-c4ccnc(Nc5ccn(C)n5)n4)n3)c2)C[C@@H]1C(F)(F)F (single isomer, unassigned) [Example 60] | 0.1 to 0.5 µM | > 0.501 µM | – |
| CN1CC[C@@](O)(c2cccc(-c3nc(-c4ccnc(N[C@@H]5CNC(=O)C5)n4)cs3)c2)C1=O [Example 171] | < 0.1 µM | > 0.501 µM | – |
| COc1nn(C)cc1Nc1nccc(-c2csc(-c3cccc([C@]4(O)CCN(C)C4=O)c3)n2)n1 [Example 104, (R)-3-hydroxy-3-(3-(4-(2-((3-methoxy-1-methyl-1H-pyrazol-4-yl)amino)pyrimidin-4-yl)thiazol-2-yl)phenyl)-1-methylpyrrolidin-2-one] | < 0.1 µM | < 0.1 µM | – |
| C[C@@H](Nc1nccc(-n2ccc(-c3cccc([C@]4(O)CCN(C)C4=O)c3)n2)n1)c1ccnn1C (single isomer, unassigned) [Example 92] | < 0.1 µM | < 0.1 µM | – |
| CN1CC[C@@](O)(c2cccc(-c3nc(-c4ccnc(NCCC(F)(F)F)n4)cs3)c2)C1=O [Example 236] | < 0.1 µM | > 0.501 µM | – |
| COc1ccnc(Nc2nccc(-c3csc(-c4cccc([C@]5(O)CCN(C)C5=O)c4)n3)n2)c1 [Example 162, (R)-3-Hydroxy-3-(3-(4-(2-((4-methoxypyridin-2-yl)amino)pyrimidin-4-yl)thiazol-2-yl)phenyl)-1-methylpyrrolidin-2-one] | < 0.1 µM | > 0.501 µM | – |
| CN1CC[C@@](O)(c2cccc(-c3csc(-c4ccnc(Nc5ccn(C)n5)n4)n3)c2)C1=O [Example 3, (R)-3-hydroxy-1-methyl-3-(3-(2-(2-((1-methyl-1H-pyrazol-3-yl)amino)pyrimidin-4-yl)thiazol-4-yl)phenyl)pyrrolidin-2-one] | < 0.1 µM | < 0.1 µM | – |
| Cc1c(CNc2nccc(-c3csc(-c4cccc([C@]5(O)CCN(C)C5=O)c4)n3)n2)cnn1C [Example 118, (R)-3-(3-(4-(2-(((1,5-dimethyl-1H-pyrazol-4-yl)methyl)amino)pyrimidin-4-yl)thiazol-2-yl)phenyl)-3-hydroxy-1-methylpyrrolidin-2-one] | < 0.1 µM | > 0.501 µM | – |
| CN1CC[C@@](O)(c2cccc(-c3nc(-c4ccnc(Nc5nc(C(F)(F)F)cs5)n4)cs3)c2)C1=O [Example 248] | < 0.1 µM | 0.1 to 0.5 µM | – |
| CN1CC[C@@](O)(c2cccc(-c3nc(-c4ccnc(Nc5ccn(CC(F)(F)F)n5)n4)cs3)c2)C1=O [Example 75, (R)-3-hydroxy-1-methyl-3-(3-(4-(2-((1-(2,2,2-trifluoroethyl)-1H-pyrazol-3-yl)amino)pyrimidin-4-yl)thiazol-2-yl)phenyl)pyrrolidin-2-one] | < 0.1 µM | 0.1 to 0.5 µM | – |
| CC(=O)N1CC[C@@H](Nc2nccc(-c3csc(-c4cccc([C@]5(O)CCN(C)C5=O)c4)n3)n2)C1 [Example 212] | < 0.1 µM | > 0.501 µM | – |
| CN1CC[C@@](O)(c2cccc(-c3nc(-c4ccnc(NC5CC5)n4)cs3)c2)C1=O [Example 137, (R)-3-(3-(4-(2-(cyclopropylamino)pyrimidin-4-yl)thiazol-2-yl)phenyl)-3-hydroxy-1-methylpyrrolidin-2-one] | < 0.1 µM | > 0.501 µM | – |
| CN1CC[C@@](O)(c2cccc(-c3nc(-c4ccnc(Nc5ncccc5F)n4)cs3)c2)C1=O [Example 163, (R)-3-(3-(4-(2-((3-Fluoropyridin-2-yl)amino)pyrimidin-4-yl)thiazol-2-yl)phenyl)-3-hydroxy-1-methylpyrrolidin-2-one] | 0.1 to 0.5 µM | > 0.501 µM | – |
| CC(Nc1nccc(-c2nc(-c3cccc(C4(O)CCN(C)C4=O)c3)cs2)n1)c1cnn(C)c1 (single isomer, unassigned) [Example 40] | < 0.1 µM | – | > 0.501 µM |
